Data: US11219625B2, “Inhibitors of N-linked glycosylation and methods using same” (YALE UNIVERSITY, priority 2015, dated 2022)

Columns and labels:
Assay type in all cases: cell-based
EGFR = assay: Surface biotinylation of EGFR, H3255 cells; settings: H3255, 10 μM NGI-1, 24 h
Procedure: FIGS. 3A-3F illustrate the finding that NGI-1 disrupts EGFR glycosylation and cell surface expression. FIG. 3A illustrates EGFR western blots from H3255 treated with or without 10 μM NGI-1 for 24 h. Molecular weight size shifts are compared to PNGase digestion and tunicamycin treatment alone. FIG. 3B illustrates EGFR localization in H3255 cells after 24 h 10 μM NGI-1 treatment analyzed by western blot. Plasma membrane proteins present on the surface of H3255 cells were biotinylated using a non-permeable form of biotin, sulfo-NHS—SS-biotin, and precipitated by streptavidin agarose beads. Biotin-labeled plasma membrane proteins and the fraction of non-biotinylated proteins were subjected to SDS-PAGE and analyzed by western blot against EGFR. FIG. 3C illustrates EGFR localization in H3255 cells after 24 h 10 μM NGI-1 treatment analyzed by confocal microscopy. H3255 cells were subjected to immunofluorescence for EGFR protein (red) counterstained with (CRT; green) and colocalization was determined by confocal microscopy. Nuclei were counterstained with ToPro3 (cyan). […] Bar, 10 μm. FIG. 3D illustrates quantification of colocalization using Image J Colormap Software. […] ITB1 localization after 10 μM NGI-1 for 48 h analyzed by (FIG. 3E) surface biotinylation (FIG. 3F) confocal microscopy (green). […]

PC9 cells = assay: Cell cycle distribution by flow cytometry, PC9; settings: PC9, NGI-1 24 h; control 65%; p<0.01
Procedure: FIGS. 5A-5G illustrate NGI-1 induces G1 arrest and senescence in EGFR addicted tumor cells. FIG. 5A illustrates cell cycle distribution of PC9 cells after 24 h NGI-1 treatment for 24 h determined by flow cytometry. […] FIG. 5B illustrates cell cycle distribution of A549 cells after 24 h NGI-1 treatment for 24 h determined by flow cytometry. FIG. 5C illustrates western blot time course of cyclin D1 expression in PC9 and A549 cells after NGI-1 treatment. FIG. 5D illustrates quantitative real-time PCR analysis of PC9 and A549 cells. A time course of cyclin D1 expression levels relative to GAPDH is represented. […] FIG. 5F illustrates senescence of PC9 cells explored by: cell autofluorescence, measured by flow cytometry using a detector for PE/YFP; lipofuscin accumulation, detected by confocal laser scanning microscopy using an excitation laser of 405 nm with acquired signals from spectrums of yellow 575-620 nm; and morphology changes, enlarged vs. flattened. […] Significance was calculated using a T test (*p<0.05. **p<0.01). FIG. 5G illustrates senescence of A549 cells explored by: cell autofluorescence, measured by flow cytometry using a detector for PE/YFP; lipofuscin accumulation, detected by confocal laser scanning microscopy using an excitation laser of 405 nm with acquired signals from spectrums of yellow 575-620 nm; and morphology changes, enlarged vs. flattened. […]

HCC827 cells = assay: Cell cycle distribution by flow cytometry, HCC827; settings: HCC827, NGI-1 24 h, p<0.01
Procedure: FIGS. 7A-7D illustrate EGFR kinase domain mutant cell lines growth inhibition and cell cycle arrest response to NGI-1. FIG. 7A illustrates MTT assays to determine the effects of NGI-1 on growth of H3255 cells. FIG. 7B illustrates MIT assays to determine the effects of NGI-1 on growth of HCC827 cells. EGFR kinase domain mutant cell lines H3255 and HCC827 cells were untreated or treated with 10 μM NGI-1 for 5 d. […] FIG. 7C illustrates cell cycle distribution of H3255 after 24 h NGI-1 treatment for 24 h determined by flow cytometry. FIG. 7D illustrates cell cycle distribution of HCC827 after 24 h NGI-1 treatment for 24 h determined by flow cytometry.
For the assessment of cell cycle distribution, 1×10^6 cells were collected, washed once with ice-cold PBS and fixed in ice-cold 70% ethanol overnight at −20° C. Thereafter, cells were washed twice with PBS and incubated for 30 min at room temperature in 200 μL of Guava Cell Cycle Reagent (Guava Technologies). Cytofluorometric acquisitions were performed on a LSRII cytometer (BD Biosciences). First-line analysis was performed with Flow Jo software, upon gating on the events characterized by normal forward and side scatter parameters and discrimination of doublets in a FSC-A vs. FSC-H bivariate plot. Approximately 30,000 cells were analyzed per experiment, and the mean value was obtained from 3 independent assays.

## Cc1cnc(NC(=O)c2cc(S(=O)(=O)N(C)C)ccc2N2CCCC2)s1 [NGI-1, 5-(N,N-Dimethylsulfamoyl)-N-(5-methylthiazol-2-yl)-2-(pyrrolidin-1-yl)benzamide]
EGFR
  EGFR distribution, biotinylated vs non-biotinylated fraction: predominantly found in the non-biotinylated intracellular fraction
PC9 cells
  cells in G1: 90%
HCC827 cells
  cell cycle distribution: undergo G1 arrest
